The test system of one data set is SAH hydrolase. In words: SAH hydrolase inhibition. It counts as biochemical. As for the experimental part:
The effect of incubation time and AICA riboside concentration on SAH hydrolase activity was determined as follows. Five samples of SAH hydrolase were incubated at the following AICA riboside concentrations: 0, 10, 25, 50 and 100 μM. The incubation buffer consisted of 25 mM potassium phosphate pH 7.0, 1 mM EDTA, 1 mM, DTT and 0.04% BSA. The total enzyme added to incubation mixture was 10 μg. At indicated times, 10 μl of sample was withdrawn and assayed in the following assay system: 25 mM potassium phosphate, pH 7.0, 40 mM DL-Homocysteine, 1 mM EDTA, 1 mM DTT, 10 μM EHNA, 0.1% BSA and 10 μM U-^14 C Adenosine (590 m Ci/mmole). The reaction was stopped by adding 15 μl of 30% TCA. The samples were then centrifuged and 15 μl were removed and applied to Kodak cellulose 13254 TLC plates along with SAH and adenosine markers. The plates were then developed in a solvent system of 1-butanol:methanol:H2 O:ammonium hydroxide (60:20:20:2). The adenosine and S-adenosyl homocysteine were visualized under UV light and the spots were cut from the plate. Radioactivity of the spots was determined by liquid scintillation spectrometry. From a plot of the reciprocal of Kinactivation vs. 1/AICA riboside concentration the values of Ki (X-intercept) and Kmax (Y-intercept), were determined (FIG. 10(b)).

The conditions of data set [1]: cited from earlier work.
A further data set concerns HIV-1. The data set can be described thus: HIV syncitial forming assay using CEM-SS cells. The note with it: AZT 0.01 μM and 0.1 μM, 24 hour preincubation before HIV infection. It counts as cell-based. The source says:
The following cytomorphologic infectivity bioassay was used to characterize antiviral activity against HIV-1. In the following assay a single infectious unit of virus infects a single cell and initiates a focal expression of that infection, i.e., a syncitium. Since a single infectious unit leads to a discrete response, a linear relationship exists between the number of virally-induced cytopathic effects and the first order of virus concentration. Application of this procedure in assays for virus inactivation allows for evaluation of the candidate antiviral agent.
CEM-SS (syncitium-sensitive Leu 3a-positive CEM cell line) cells were grown in RPMI 1640 cell culture media (Irvine Scientific) supplemented with 10% heat-inactivated fetal bovine serum (Gemini Bioproducts) and 1% […] glutamine (Gibco). Log-phase cells were split 1:2 with the growth medium the day prior to setting up the assay to standardize plating conditions and to assure a population of logarithmically growing cells. Ninety-six-well plates (Costar) were pretreated with 50 μl of 50 μg/ml poly-1-lysine (MW=295,000 Sigma) "PLL") and were left at room temperature for 60 minutes. Residual PLL was removed with two washes of PBS. The plates were stored in the incubator until used.
On the day of the assay, the cells were counted and enough cells were harvested to plate each well with 5.0×10^4 cells per well in a volume of 200 μl (or 20 ml of […] was appropriate for each 96-well microtitre plate).
The cells were plated out on the PLL pre-treated microtitre plates at 5.0×10^4 cells/well in a volume of 200 μl. After allowing attachment for 30 minutes at 37° C. and 5% CO2, the antiviral agent(s) were added in the noted amounts and the treated plates were pre-incubated for 24 hours.
The HIV-1 virus stock (isolated from infected H-9 cells) was diluted in growth medium to yield 100 SFU (syncytial-forming units) per well. Diluted HIV-1 virus, 20 μl, was added to appropriate wells. All the plates were then incubated for 5 days at 37° C. and 5% CO2. On day 5 post-infection, the cells were given a 100 μl media change. […]

Data set [2] deals with N2 virus (replication-defective murine leukemia virus construct). The data set can be described thus: N2 colony resistance assay on 208F rat fibroblasts. It counts as cell-based. The settings on record: 0.01 μM AZT compared with 500 μM AICA riboside. The source says:
As described in Example Two, several retroviral assay systems were utilized to test the antiviral activity of various purine nucleoside compounds. One assay system employed a replication-defective murine leukemia virus construct "N2") containing a selectable marker (the neomycin resistance gene). The N2 virus construct is present in the producer or "helper" cell line also called N2 which contains a second retroviral construct that encodes for the production of the retrovirus proteins necessary for packaging and which can, therefore, psuedotype the N2 vector into an infective amphotrophic murine retrovirus. […]
(§1) In this colony-forming bioassay for the characterization of antiviral compounds against retroviruses, a replication-defective retroviral vector construct having the ability to confer neomycin-resistance (U937/BAG or N2) is psuedotyped, infects a single cell, and under neomycin selection, allows the recipient cell to form a colony. Since each infection yields a neomycin-resistant cell capable of producing a discrete group of cells, colonies can be counted, resulting in a linear relationship between the number of colonies and the first order of virus concentration. […]
Neomycin selection (500 μg/ml) was begun the next day and continued for eight days post-infection, changing the media three times per week. […] All colonies with 50 or more aggregate cells were counted.

Another data set relates to HIV. In words: HIV syncitial forming assay using SupT-1 cells. It counts as cell-based. Here is the method:
The assay was performed following the procedure described in Example Three except that SupT-1 cells were used. Using the SupT-1 cells, the medium was not changed at day 5 post-infection and the syncitia were counted at day 5 post-infection at 40X. The results are plotted in FIGS. 5, 6(b), and 7.

Data set [3] concerns peripheral blood macrophages. The note with it: cited from earlier work.
In data set [4] the test system is BAG vector pseudotyped by MA (amphotrophic murine leukemia virus). The data set can be described thus: U937/BAG+MA colony resistance assay titered on 208F rat fibroblasts. Format: cell-based. The settings on record: 0.01 μM AZT. Here is the method: A second, similar assay system was utilized in which a human macrophage line (U937) carrying the BAG retroviral vector construct (having neomycin resistance and beta-galactosidase marker genes), Cepko, PNAS, Vol. 84, p. 156-160 (1987), was infected with MA (amphotrophic MLV [murine leukemia virus]). MA was used to pseudotype the replication-defective BAG vector, which was then titered on 208F cells. According to this assay, the results of which are shown in FIG. 1c, 0.01 μM AZT and 500 μM AICA riboside were both effective against murine retroviruses. […]
as §1
After drying, the plates were stained with 2 ml of 1:20 Glemsa (Sigma) for 1 hour. […] All colonies containing 50 or more cells were scored.

The test system of the next data set is AIDS virus. The note with it: cited from earlier work.

Read-outs that look alike come from different tables or passages of the source.

The source of these data is patent publication US5132291A, “Antivirals and methods for increasing the antiviral activity of AZT” (priority 1989, dated 1992).

Take `NC(=O)c1nc[nH]c1N` [AICA]: the “inhibition of SAH hydrolase” value in the data set on SAH hydrolase is “very potent inhibitors”; in the data set with SAH hydrolase (even at a concentration as low as 10 μM), “potent inhibitors”.

For the compound `Cc1cn([C@H]2C[C@H](N=[N+]=[N-])[C@@H](CO)O2)c(=O)[nH]c1=O` [AZT, 3'azido-3'deoxythymidine], in data set [1] (CD4 (T4) lymphocyte count ≤200/mm^3), the “patients with macrocytic anemia” value is listed as “up to 45%”. The patients with granulocytopenia entry in data set [1] (CD4 count >200/mm^3) is “up to 40%”; in data set [1] (CD4 count ≤200/mm^3), “up to 55%”. Besides, in the data set on HIV-1, the “antiviral effect (number of syncitia)” value is “antiviral effects”. The “antiviral activity (neomycin-resistant colonies)” value in data set [2] is on record as “somewhat better antiviral activity than 500 μM AICA riboside”. In addition, in the data set with HIV (AZT 0.01 μM-1 μM, 7200 min), the “effectiveness against the AIDS virus (prevention of syncitial formation)” value is reported as “less than 100%”. Besides, the inhibition at 10 µM in the data set on HIV (Human immunodeficiency virus 1, SUP-T1, 120 h, read-out: effectiveness against the AIDS virus (prevention of syncitial formation)) came out at 100%. In data set [3], the “accumulation of AZT nucleotides in macrophages as compared to CEM” value was “nine-fold lower”. Moreover, the “effectiveness against murine retroviruses” value in data set [4] is “effective”.

`NC(=O)c1ncn([C@@H]2O[C@H](CO)[C@@H](O)[C@H]2O)n1` [ribavirin]: the “decrease of phosphorylation of AZT to the mono-, di-, and triphosphate forms” value in the data set on AIDS virus (AIDS infected and uninfected cells) is “approximately a factor of ten”. Moreover, in the data set on AIDS virus (peripheral blood lymphocytes and H9 cells), the “effect on effectiveness of AZT against the AIDS virus” value is on record as “reduced the effectiveness of AZT”.
